Source: patent publication EP4678635A1, “CRYSTAL FORM OF NIROGACESTAT DIHYDROBROMATE, AND PREPARATION METHOD THEREFOR AND USE THEREOF” (Crystal Pharmaceutical (Suzhou) Co., Ltd., priority 2023, dated 2024)
Converted amounts (≈) assume the structure as drawn. Where two headings read alike, the source gives them in different places.

Legend:
Assay type in all cases: physicochemical
[1] = Kinetic solubility in FaSSIF and FeSSIF
Method: Table 2 [table] When solubility test is used to predict the in vivo performance of a drug, it is critical to simulate in vivo conditions as closely as possible. For oral drugs, FaSSIF and FeSSIF can be used to simulate the conditions in vivo and predict the effect of eating. Solubilities in these media are closer to those in vivo. Appropriate amounts of Form CSVI were suspended in FaSSIF and FeSSIF at 37 °C. After equilibration for 0.5 h, the suspensions were filtered and the concentration (mg/mL) of Compound I in each filtrate was measured by HPLC. […]

Bulk and tapped density = details: for Bulk density: about 500 mg in 5-mL graduated cylinder, before tapping; for Tapped density: tapped 1250 times
Method: About 500 mg of sample was gently loaded into a 5-mL graduated cylinder to measure the bulk volume before tapping. The sample was then tapped 1250 times on a ZS-2E tap density tester to achieve a tapped state, and the tapped volume was recorded. The bulk density ρ0 and tapped density ρf were calculated accordingly.

[2] = Compressibility (tensile strength of tablets, manual tablet press); details: about 60 mg, Φ6mm round tooling, pressure of 3 kN, 24 h at RT; T=2H/πDL
Method: (§1) Tablets were prepared by an ENERPAC manual tablet press. About 60 mg of Form CSV and the prior art Form A were separately added to Φ6mm round tooling punches and compressed into tablets under a pressure of 3 kN. The tablets were left at RT for 24 h to allow complete elastic recovery. The diameter (D) and thickness (L) were measured using a vernier caliper, and their radial crushing strength (hardness, H) was determined using a tablet hardness tester. The tensile strength (T) of the powders was calculated with the following formula: T=2H/πDL. […] Under a certain force, higher tensile strength indicates better compressibility.
as §1, with “CSVI” for “CSV”

[3] = Stability under mechanical force: ball milling, XRPD; details: ball milling at 500 rpm for 5 minutes
Method: An appropriate amount of Form CSV was subjected to ball milling at 500 rpm for 5 minutes using a ball mill. […]
An appropriate amount of Form CSVI was subjected to ball milling at 500 rpm for 5 minutes using a ball mill. […]

[4] = Stability under mechanical force: tableting under different pressures, XRPD; details: Φ6mm round tooling punch
Method: An appropriate amount of Form CSV was compressed into tablets under different pressures with a Φ6mm round tooling punch. XRPD tests were conducted before and after compression. The test results are listed in Table 6, and the XRPD overlay is depicted in Figure 5.
An appropriate amount of Form CSVI was compressed into tablets under different pressures with a Φ6mm round tooling punch. XRPD tests were conducted before and after compression. The test results are listed in Table 10, and the XRPD overlay is depicted in Figure 12.

[5] = Storage stability (crystalline form by XRPD, purity by HPLC); details: for Purity (%): HPLC, initial purity 99.51; for Crystalline form / remains stable for at least / Solid form: sealed container; for Crystalline form / Solid form: XRPD; for Crystalline form: initial Form CSV; for Solid form: initial Form CSVI
Method: (§2) An appropriate amount of Form CSV was packaged in a sealed container and then stored under the conditions of 25 °C/60%RH, 40 °C/75%RH and 60 °C/75%RH, respectively. Crystalline form and purity were analyzed by XRPD and HPLC. The results are listed in Table 5, and the XRPD pattern overlay is depicted in Figure 4. […] Meanwhile, Form CSV remains stable for at least 2 months under 60 °C/75%RH condition, indicating Form CSV has good stability under stress condition as well.
as §2, with “CSVI” for “CSV”, “was” for “and purity were”, “XRPD.” for “XRPD and HPLC.”, “9,” for “5,”, “11.” for “4.”

| Compound | average tensile strength [2] [MPa] | crystalline form before and after ball milling [3] | After tableting (crystalline form) ([4]; Pressure 5 kN) | After tableting (crystalline form) ([4]; Pressure 10 kN) | After tableting (crystalline form) ([4]; Pressure 20 kN) | remains stable for at least ([5]; 25 °C/60%RH) | remains stable for at least ([5]; 40 °C/75%RH) | remains stable for at least ([5]; 60 °C/75%RH) | also measured |
| --- | --- | --- | --- | --- | --- | --- | --- | --- | --- |
| CCC[C@H](N[C@H]1CCc2cc(F)cc(F)c2C1)C(=O)Nc1cn(C(C)(C)CNCC(C)(C)C)cn1 [Form A, (S)-2-(((S)-6,8-difluoro-1,2,3,4-tetrahydronaphthalen-2-yl)amino)-N-(1-(2-methyl-1-(neopentylamino)propan-2-yl)-1H-imidazol-4-yl) pentanamide, reference compound] | 0.37 |  |  |  |  |  |  |  | solubility at 0.5 h ([1]; fassif, solubility (concentration of Compound I in filtrate)): 4200 µg/mL (≈ 8.58 mM); solubility at 0.5 h ([1]; solubility (concentration of Compound I in filtrate)): 7500 µg/mL (≈ 15.3 mM); Bulk density (Bulk and tapped density; listed as The prior art Form A): 0.251 g/mL; Tapped density (Bulk and tapped density; listed as The prior art Form A): 0.282 g/mL |
| CCC[C@H](N[C@H]1CCc2cc(F)cc(F)c2C1)C(=O)Nc1cn(C(C)(C)CNCC(C)(C)C)cn1 [Form CSV, (S)-2-(((S)-6,8-difluoro-1,2,3,4-tetrahydronaphthalen-2-yl)amino)-N-(1-(2-methyl-1-(neopentylamino)propan-2-yl)-1H-imidazol-4-yl) pentanamide] | 0.55 | remained unchanged | Form CSV | Form CSV | Form CSV | at least 6 months | at least 6 months | at least 2 months | Bulk density (Bulk and tapped density): 0.422 g/mL; Tapped density (Bulk and tapped density): 0.506 g/mL; Purity (%) ([5]; 25 °C/60%RH, 6 months): 99.52%; Crystalline form ([5]; 25 °C/60%RH, 6 months): Form CSV; Purity (%) ([5]; 40 °C/75%RH, 6 months): 99.50%; Crystalline form ([5]; 40 °C/75%RH, 6 months): Form CSV; Purity (%) ([5]; 60 °C/75%RH, 2 months): 99.54%; Crystalline form ([5]; 60 °C/75%RH, 2 months): Form CSV |
| CCC[C@H](N[C@H]1CCc2cc(F)cc(F)c2C1)C(=O)Nc1cn(C(C)(C)CNCC(C)(C)C)cn1 [Form CSVI, (S)-2-(((S)-6,8-difluoro-1,2,3,4-tetrahydronaphthalen-2-yl)amino)-N-(1-(2-methyl-1-(neopentylamino)propan-2-yl)-1H-imidazol-4-yl) pentanamide] | 0.907 | remained unchanged | Form CSVI | Form CSVI | Form CSVI | at least 8 months | at least 8 months | at least 2 months | solubility at 0.5 h ([1]; FeSSIF, 37 °C, equilibration for 0.5 h, HPLC, read-out: solubility (concentration of Compound I in filtrate)): 10100 µg/mL (≈ 20.6 mM); solubility at 0.5 h ([1]; fassif, 37 °C, equilibration for 0.5 h, HPLC, read-out: solubility (concentration of Compound I in filtrate)): 16100 µg/mL (≈ 32.9 mM); Solid form ([5]; 25 °C/60%RH, 8 months): Form CSVI; Solid form ([5]; 40 °C/75%RH, 8 months): Form CSVI; Solid form ([5]; 60 °C/75%RH, 2 months): Form CSVI |
